This is an account of results in patent US9115101B2 (Genentech, Inc., priority 2012, dated 2015).

The target in this assay is T1, RORc ligand binding domain (Homo sapiens, UniProt P51449).
T1 construct: host or cells: E. coli
T1 sequence (P51449 269-508 limits assumed): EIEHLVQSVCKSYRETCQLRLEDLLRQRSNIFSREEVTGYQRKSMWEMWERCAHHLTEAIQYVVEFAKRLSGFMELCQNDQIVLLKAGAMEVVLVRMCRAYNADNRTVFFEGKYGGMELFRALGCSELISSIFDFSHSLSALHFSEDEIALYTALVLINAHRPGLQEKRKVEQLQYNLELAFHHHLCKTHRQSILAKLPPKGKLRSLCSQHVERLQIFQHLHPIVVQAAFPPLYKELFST
Nature of the assay: In Vitro RORc Ligand Binding Assay (25-[3H]hydroxycholesterol radioligand filtration). The settings on record: In Vitro RORc Ligand Binding Assay; Table 4; read-out: RORc IC50.

`C[C@H]1CCC(c2ccccc2)S(=O)(=O)N1Cc1ccc(N2CC(C3CCOCC3)C2)cc1F` (single isomer, unassigned) [Example 106]: the IC50 – broadly, the concentration at which inhibition is half-maximal – was 20 nM. To `C[C@H]1CCC(c2ccccc2)S(=O)(=O)N1Cc1ccc(N2CCC3(COC3)C2)cc1F` (single isomer, unassigned) [Example 107] belongs 20 nM; to `C[C@H]1CCC(c2ccccc2)S(=O)(=O)N1Cc1ccc(N2CC(C3CCOCC3)C2)cc1F` (single isomer, unassigned) [Example 108], 33 nM. As for `C[C@H]1CCC(c2ccccc2)S(=O)(=O)N1Cc1ccc(N2CCC(S(=O)(=O)N(C)C)CC2)cc1F` (single isomer, unassigned) [Example 109], the IC50 was determined as 34 nM. Turning to `C[C@H]1CCC(c2ccccc2)S(=O)(=O)N1Cc1ccc(N[C@H]2CC[C@@H](C#N)CC2)cc1F` (single isomer, unassigned) [Example 110], the IC50 worked out at 35 nM. The result for `C[C@H]1CCC(c2ccccc2)S(=O)(=O)N1Cc1ccc(N[C@H]2CC[C@H](C#N)CC2)cc1F` (single isomer, unassigned) [Example 111] reads 49 nM; that for `C[C@H]1CCC(c2ccccc2)S(=O)(=O)N1Cc1ccc(N[C@H]2CC[C@H](C#N)CC2)cc1F` (single isomer, unassigned) [Example 112], 30 nM; that for `CC(=O)N1CCN(c2ccc(CN3[C@@H](C)CCC(c4ccccc4)S3(=O)=O)cc2C#N)CC1` (single isomer, unassigned) [Example 113], 2750 nM. Turning to `CC(=O)N1CCN(c2ccc(CN3[C@@H](C)CCC(c4ccccc4)S3(=O)=O)cc2C#N)CC1` (single isomer, unassigned) [Example 114], the IC50 was determined as 201 nM. The result for `CC(=O)N1CCN(c2ccc(CN3[C@@H](C)CCC(c4ccccc4F)S3(=O)=O)c(F)c2)CC1` (single isomer, unassigned) [Example 116] reads 37 nM.

`CC(=O)N1CCN(c2ccc(CN3[C@@H](C)CCC(c4ccccc4F)S3(=O)=O)c(F)c2)CC1` (single isomer, unassigned) [Example 117]: the IC50 was 3 nM. In the case of `CC(=O)N1CCN(c2ccc(CN3CC(C)CC(c4ccccc4)S3(=O)=O)c(F)c2)CC1` (single isomer, unassigned) [Example 118, 1-{4-[3-Fluoro-4-(4-methyl-1,1-dioxo-6-phenyl-[1,2]thiazinan-2-ylmethyl)-phenyl]-piperazin-1-yl}-ethanone], the IC50 was 20 nM. As for `CC(=O)N1CCN(c2ccc(CN3CC(C)CC(c4ccccc4)S3(=O)=O)c(F)c2)CC1` (single isomer, unassigned) [Example 119, 1-{4-[3-Fluoro-4-(4-methyl-1,1-dioxo-6-phenyl-[1,2]thiazinan-2-ylmethyl)-phenyl]-piperazin-1-yl}-ethanone], the IC50 was determined as 2 nM. For `CC(=O)N1CCN(c2ccc(CN3[C@@H](C)CCC(c4ccc(F)cc4)S3(=O)=O)c(F)c2)CC1` (single isomer, unassigned) [Example 121], the IC50 was determined as 14 nM.

For `CC(=O)N1CCN(c2ccc(CN3[C@@H](C)CCC(c4ccc(F)cc4)S3(=O)=O)c(F)c2)CC1` (single isomer, unassigned) [Example 122], the concentration for half-maximal inhibition (IC50) worked out at 47 nM. For the compound `CC(=O)N1CCN(c2ccc(CN3[C@@H](C)CCC(c4cccc(F)c4)S3(=O)=O)c(F)c2)CC1` (single isomer, unassigned) [Example 127], the IC50 was found to be 58 nM.

`CC(=O)N1CCN(c2ccc(CN3[C@@H](C)CCC(c4cccc(F)c4)S3(=O)=O)c(F)c2)CC1` (single isomer, unassigned) [Example 128]: the IC50 amounted to 52 nM. With `CC(=O)N1CCN(c2ccc(CN3[C@@H](C)CCC(c4ccccc4)S3(=O)=O)cc2C)CC1` (single isomer, unassigned) [Example 129], the IC50 is 432 nM. To `CC(=O)N1CCN(c2ccc(CN3[C@@H](C)CCC(c4ccccc4)S3(=O)=O)cc2C)CC1` (single isomer, unassigned) [Example 130] belongs 72 nM. For the compound `CC(=O)N1CCN(c2ccc(CN3[C@@H](C)CCC(c4ccccc4)S3(=O)=O)c(C)c2)CC1` (single isomer, unassigned) [Example 131], the IC50 was determined as 501 nM. On to `CC(=O)N1CCN(c2ccc(CN3[C@@H](C)CCC(c4ccccc4)S3(=O)=O)c(C)c2)CC1` (single isomer, unassigned) [Example 132], for which the IC50 amounted to 3930 nM.

`C[C@H]1CCC(c2ccccc2)S(=O)(=O)N1Cc1ccc(N2CCn3nccc3C2)cc1F` (single isomer, unassigned) [Example 133]: the IC50 was determined as 244 nM. The result for `C[C@H]1CCC(c2ccccc2)S(=O)(=O)N1Cc1ccc(N2CCn3nccc3C2)cc1F` (single isomer, unassigned) [Example 134] reads 330 nM; that for `C[C@H]1CCC(c2ccccc2)S(=O)(=O)N1Cc1ccc(N2CCC(c3nncn3C)CC2)cc1F` (single isomer, unassigned) [Example 137], 2480 nM; that for `C[C@H]1CCC(c2ccccc2)S(=O)(=O)N1Cc1ccc(N2CCC(c3nncn3C)CC2)cc1F` (single isomer, unassigned) [Example 138], 1100 nM. The result for `C[C@H]1CCC(c2ccccc2)S(=O)(=O)N1Cc1ccc(N2CCC(c3nccn3C)CC2)cc1F` (single isomer, unassigned) [Example 139] reads 1390 nM. To `C[C@H]1CCC(c2ccccc2)S(=O)(=O)N1Cc1ccc(N2CCC(c3nccn3C)CC2)cc1F` (single isomer, unassigned) [Example 140] belongs 410 nM. On to `C[C@H]1CCC(c2ccccc2)S(=O)(=O)N1Cc1ccc(N2CCC(c3nnn[nH]3)CC2)cc1F` (single isomer, unassigned) [Example 141], for which the IC50 turned out to be 57 nM. As for `C[C@H]1CCC(c2ccccc2)S(=O)(=O)N1Cc1ccc(N2CCC(c3nnn[nH]3)CC2)cc1F` (single isomer, unassigned) [Example 142], the IC50 was 192 nM. Take `C[C@H]1CCC(c2ccccc2)S(=O)(=O)N1Cc1ccc(N2CCC(c3n[nH]c(=O)o3)CC2)cc1F` (single isomer, unassigned) [Example 143]: the IC50 was 44 nM. Consider `C[C@H]1CCC(c2ccccc2)S(=O)(=O)N1Cc1ccc(N2CCC(c3n[nH]c(=O)o3)CC2)cc1F` (single isomer, unassigned) [Example 144], for which the IC50 came to 21 nM. The result for `C[C@H]1CCC(c2ccccc2)S(=O)(=O)N1Cc1ccc(N2CCc3[nH]ncc3C2)cc1F` (single isomer, unassigned) [Example 145] reads 242 nM. The result for `CON(C)C(=O)C1CCN(c2ccc(CN3[C@@H](C)CCC(c4ccccc4)S3(=O)=O)c(F)c2)CC1` (single isomer, unassigned) [Example 146] reads 142 nM; that for `CON(C)C(=O)C1CCN(c2ccc(CN3[C@@H](C)CCC(c4ccccc4)S3(=O)=O)c(F)c2)CC1` (single isomer, unassigned) [Example 147], 1780 nM; that for `C[C@H]1CCC(c2ccccc2)S(=O)(=O)N1Cc1ccc(N2CCn3cnnc3C2)cc1F` (single isomer, unassigned) [Example 148], 1600 nM. Take `C[C@H]1CCC(c2ccccc2)S(=O)(=O)N1Cc1ccc(N2CCn3cnnc3C2)cc1F` (single isomer, unassigned) [Example 149]: the IC50 was determined as 1460 nM.

For the compound `C[C@H]1CCC(c2ccccc2)S(=O)(=O)N1Cc1ccc(N2CCC(n3cnnc3)CC2)cc1F` (single isomer, unassigned) [Example 150], the IC50 turned out to be 29 nM.

Turning to `C[C@H]1CCC(c2ccccc2)S(=O)(=O)N1Cc1ccc(N2CCC(n3cnnc3)CC2)cc1F` (single isomer, unassigned) [Example 151], the 50% inhibitory concentration (IC50) was 27 nM.

Take `C[C@H]1CCC(c2ccccc2)S(=O)(=O)N1Cc1ccc(N2CCC(c3cc(O)no3)CC2)cc1F` (single isomer, unassigned) [Example 152]: the IC50 came to 29 nM. Take `C[C@H]1CCC(c2ccccc2)S(=O)(=O)N1Cc1ccc(N2CCC(c3cc(O)no3)CC2)cc1F` (single isomer, unassigned) [Example 153]: the IC50 was 55 nM. Turning to `C[C@H]1CCC(c2ccccc2)S(=O)(=O)N1Cc1ccc(N2CCn3cncc3C2)cc1F` (single isomer, unassigned) [Example 154], the IC50 was determined as 145 nM. On to `C[C@H]1CCC(c2ccccc2)S(=O)(=O)N1Cc1ccc(N2CCn3cncc3C2)cc1F` (single isomer, unassigned) [Example 155], for which the IC50 is 175 nM. On to `C[C@H]1CCC(c2ccccc2)S(=O)(=O)N1Cc1ccc(N2CCc3[nH]ncc3C2)cc1F` (single isomer, unassigned) [Example 156], for which the IC50 is 272 nM. In the case of `C[C@H]1CCC(c2ccccc2)S(=O)(=O)N1Cc1ccc(N2CCn3c(n[nH]c3=O)C2)cc1F` (single isomer, unassigned) [Example 157], the IC50 stood at 1700 nM. In the case of `C[C@H]1CCC(c2ccccc2)S(=O)(=O)N1Cc1ccc(N2CCn3c(n[nH]c3=O)C2)cc1F` (single isomer, unassigned) [Example 158], the IC50 was found to be 3930 nM. Turning to `COc1cc(N2CCN(C(C)=O)CC2)ccc1CN1[C@@H](C)CCC(c2ccccc2)S1(=O)=O` (single isomer, unassigned) [Example 159], the IC50 came out at 1610 nM. `COc1cc(N2CCN(C(C)=O)CC2)ccc1CN1[C@@H](C)CCC(c2ccccc2)S1(=O)=O` (single isomer, unassigned) [Example 160]: the IC50 was 207 nM. Turning to `COc1cc(CN2[C@@H](C)CCC(c3ccccc3)S2(=O)=O)ccc1N1CCN(C(C)=O)CC1` (single isomer, unassigned) [Example 161], the IC50 amounted to 3080 nM.

For `COc1cc(CN2[C@@H](C)CCC(c3ccccc3)S2(=O)=O)ccc1N1CCN(C(C)=O)CC1` (single isomer, unassigned) [Example 162], the IC50 is 812 nM.
